Reference: article PMC7822874, “Chemoprotective antimalarials identified through quantitative high-throughput screening of Plasmodium blood and liver stage parasites” (Scientific Reports, 2021)
Where two headings read alike, the source gives them in different places.

Tests used:
[1] = system: P. falciparum Dd2 (clone B2) asexual blood stage parasites; assay: P. falciparum Dd2 asexual blood stage SYBR Green-I 72 h proliferation assay (qHTS); type: cell-based, Plasmodium falciparum; conditions: Plasmodium falciparum, DD2, Dd2 parental; Hill fit, averaged from three independent replicates; top concentration 29 µM; read-out: Average AC50 (Log[M]), Dd2 (converted)
[2] = system: P. falciparum Dd2 Cytb G131S; assay: SYBR Green ABS proliferation assay, NCGC00374598 selected clone C11; type: cell-based, Plasmodium falciparum; conditions: Plasmodium falciparum
Outline: (§1)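 Proliferation of cytb-mutant Dd2 clones was measured by SYBR Green-I fluorescence at 72 h, normalized to controls.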

[3] = system: P. falciparum Dd2 Cytb V259L; assay: SYBR Green ABS proliferation assay, NCGC00473217 selected clone F06; type: cell-based, Plasmodium falciparum; conditions: Plasmodium falciparum
Outline: as §1

[4] = system: P. falciparum Dd2 Cytb A122D; assay: SYBR Green ABS proliferation assay, NCGC00473217 selected clone F12; type: cell-based, Plasmodium falciparum; conditions: Plasmodium falciparum
Outline: as §1

[5] = system: P. falciparum Dd2 Cytb F123L; assay: SYBR Green ABS proliferation assay, NCGC00473217 selected clone G08; type: cell-based, Plasmodium falciparum; conditions: Plasmodium falciparum
Outline: as §1

[6] = system: luciferase-expressing P. berghei liver stage parasites in HepG2 cells; assay: Inhibition of liver-stage development assay (ILSDA), Method 2 (WRAIR, 96-well); type: cell-based, Plasmodium berghei; conditions: Method 2, dose response; for Activity direction (Decrease / Inactive): P. berghei liver stage; for AC50: Plasmodium berghei, HepG2, P. berghei liver stage
[7] = DD2, […], averaged from three independent replicates, top concentration 29 µM, read-out: Average AC50 (Log[M]), NCGC00374598 clone C11 (Cytb G131S) (converted)
[8] = DD2, […], averaged from three independent replicates, top concentration 29 µM, read-out: Average AC50 (Log[M]), NCGC00473217 clone F06 (Cytb V259L) (converted)
[9] = DD2, […], averaged from three independent replicates, top concentration 29 µM, read-out: Average AC50 (Log[M]), NCGC00473217 clone F12 (Cytb A122D) (converted)
[10] = DD2, […], averaged from three independent replicates, top concentration 29 µM, read-out: Average AC50 (Log[M]), NCGC00473217 clone G08 (Cytb F123L) (converted)
[11] = DD2, cytochrome b mutant line, second value triple, c6, […], read-out: log AC50, mean (converted)
[12] = DD2, cytochrome b mutant line, third value triple, c9, […], read-out: log AC50, mean (converted)
[13] = DD2, cytochrome b mutant line, fourth value triple, c12, […], read-out: log AC50, mean (converted)
[14] = DD2, cytochrome b mutant line, fifth value triple, c15, […], read-out: log AC50, mean (converted)

| Compound | AC50 [1] | AC50 [2, 7] | AC50 [3, 8] | AC50 [4, 9] | AC50 [5, 10] | AC50 [2, 11] | AC50 [3, 12] | AC50 [4, 13] | AC50 [5, 14] | Activity direction (Decrease / Inactive) [6] | AC50 ([6]; read-out: AC50) | AC50 ([6]; read-out: Log AC50 (converted)) |
| --- | --- | --- | --- | --- | --- | --- | --- | --- | --- | --- | --- | --- |
| CCCN1C(CC(C)C)=N[S+](=O)([O-])c2cc(NC(=O)c3ccccc3)ccc21 [NCGC00510420-02] | 1e-06 M | 4.23e-07 M | 1.12e-06 M | 1.06e-06 M | 2.12e-08 M |  |  |  |  |  |  |  |
| CC(C)CC1=N[S+](=O)([O-])c2cc(NC(=O)c3ccco3)ccc2N1C [NCGC00510958-01] | 5.32e-06 M | 2.82e-06 M | 1.26e-05 M | 5.02e-06 M | 7.96e-07 M |  |  |  |  |  |  |  |
| CCCN1C(CC(C)C)=N[S+](=O)([O-])c2cc(NC(=O)c3ccc(C)s3)ccc21 [NCGC00510977-01] | 8.61e-06 M | 8.93e-06 M | 1.04e-05 M | 7.96e-06 M | 8.93e-06 M |  |  |  |  |  |  |  |
| CCCN1C(CC(C)C)=N[S+](=O)([O-])c2cc(NC(=O)c3sccc3C)ccc21 [NCGC00521035-01] | 1.59e-06 M | 1.65e-06 M | 6.84e-06 M | 2.82e-06 M | 9.46e-06 M |  |  |  |  |  |  |  |
| CCCN1C(CC(C)C)=N[S+](=O)([O-])c2cc(NC(=O)c3nccs3)ccc21 [NCGC00521040-01] | 9.29e-06 M | 8.28e-07 M | 1.31e-05 M | 7.1e-06 M | 6.7e-06 M |  |  |  |  |  |  |  |
| CCCN1C(CC(C)C)=N[S+](=O)([O-])c2cc(NC(=O)c3ccon3)ccc21 [NCGC00521044-01] | 1.26e-05 M | 6.7e-06 M | 7.96e-06 M | 9.46e-06 M | 4.15e-07 M |  |  |  |  |  |  |  |
| CCCN1C(CC(C)C)=N[S+](=O)([O-])c2cc(NC(=O)c3ccno3)ccc21 [NCGC00521048-01] | 6.1e-06 M | 5.02e-06 M | 3.17e-06 M | 4.66e-06 M | 1.89e-07 M |  |  |  |  |  |  |  |
| CCCN1C(CC(C)C)=N[S+](=O)([O-])c2cc(NC(=O)c3ncco3)ccc21 [NCGC00521053-01] | 1.08e-05 M | 1.12e-05 M | 9.66e-06 M | 7.96e-06 M | 1.42e-05 M |  |  |  |  |  |  |  |
| CCCN1C(c2ccccc2)=NS(=O)(=O)c2cc(NC(=O)c3ccc(F)cc3)ccc21 [NCGC00532331-01] |  |  |  |  |  | 7.1e-07 M | 2.33e-06 M | 1.85e-06 M | 3.3e-06 M | Decrease | 17.8 µM | 17.8 µM |
| CCCN1C(c2ccccc2)=NS(=O)(=O)c2cc(NC(=O)c3cccs3)ccc21 [NCGC00532332-01] |  |  |  |  |  | 8.61e-07 M | 4.32e-06 M | 1.53e-06 M | 2e-06 M | Decrease | 0.035 µM | 0.0355 µM |
